# Target: T1, recombinant human TYRO3 (Homo sapiens, UniProt Q06418)
# T1 construct: purchased Invitrogen
# T1 sequence (Q06418 41-890): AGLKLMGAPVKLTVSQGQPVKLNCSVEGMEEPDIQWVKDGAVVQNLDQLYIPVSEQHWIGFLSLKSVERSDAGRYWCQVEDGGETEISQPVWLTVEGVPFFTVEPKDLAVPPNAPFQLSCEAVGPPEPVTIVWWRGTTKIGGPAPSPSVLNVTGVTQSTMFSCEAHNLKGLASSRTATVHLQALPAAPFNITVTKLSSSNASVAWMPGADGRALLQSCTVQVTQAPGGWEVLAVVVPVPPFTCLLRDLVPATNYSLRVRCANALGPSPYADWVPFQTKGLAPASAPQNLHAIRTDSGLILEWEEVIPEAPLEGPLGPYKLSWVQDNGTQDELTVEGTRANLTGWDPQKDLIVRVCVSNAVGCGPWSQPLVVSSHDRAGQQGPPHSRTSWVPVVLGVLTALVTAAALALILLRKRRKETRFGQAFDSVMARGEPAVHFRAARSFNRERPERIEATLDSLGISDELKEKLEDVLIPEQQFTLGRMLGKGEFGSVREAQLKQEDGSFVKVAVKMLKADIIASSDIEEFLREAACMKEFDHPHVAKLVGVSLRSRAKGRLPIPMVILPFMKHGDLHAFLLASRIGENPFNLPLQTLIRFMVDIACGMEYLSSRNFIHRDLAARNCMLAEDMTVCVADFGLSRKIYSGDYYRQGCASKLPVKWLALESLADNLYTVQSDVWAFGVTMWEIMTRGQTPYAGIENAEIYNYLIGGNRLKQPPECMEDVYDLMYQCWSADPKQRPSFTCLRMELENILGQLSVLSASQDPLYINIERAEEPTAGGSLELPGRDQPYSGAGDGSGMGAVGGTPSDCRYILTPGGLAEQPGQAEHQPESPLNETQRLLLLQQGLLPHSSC
# Test: HTRF KinEASE-TK biochemical potency, TYRO3
# Details: 1 nM TYRO3, 700 μM ATP
# Description: Purified recombinant human AXL, TYRO3 and MER proteins were purchased from Invitrogen™. 10 nM AXL, 2 nM TYRO3 or MER were incubated with varying concentrations of compounds in 50 mM HEPES, pH 7.4, 10 mM MgCl2, 0.01% BSA, 1 mM DTT and 2% DMSO in a total volume of 20 μl in a 384-well microplate (Corning™ #3640) at RT for 1 h. The AXL, TYRO3 and MER enzymatic reaction was initiated by transferring 10 μl of enzyme and compound mixture into 10 μl of 1.6 μM TK Substrate-biotin (HTRF® KinEASE-TK kit, Cisbio) and 1400 μM ATP pre-incubated in 50 mM HEPES, pH 7.4, 10 mM MgCl2, 0.01% BSA, 1 mM DTT in a 384-well microplate (Corning™ #3640) at RT, giving the final reaction conditions: 5 nM AXL, 1 nM TYRO3 or MER, 800 nM TK Substrate-biotin and 700 μM ATP in 50 mM HEPES, pH 7.4, 10 mM MgCl2, 0.01% BSA, 1 mM DTT and 1% DMSO with varying concentrations of compounds. Following 2 h incubation at RT, the AXL, TYRO3 and MER enzymatic reaction was stopped by transfer of 10 μl of reaction into 10 μl of detection mix (400 nM Streptavidin-XL665, 200-fold dilution TK Antibody-Cryptate and detection buffer, HTRF® KinEASE-TK kit, Cisbio) in a white 384-well microplate (Perkin Elmer, OptiPlate 384). After 1 h incubation at RT, the plate was put into a plate reader (Evision) to read at 665/620 nm (acceptor/donor) for HTRF. The value of the DMSO blank (MIN inhibition=100% activity) was used as a negative control. The positive control was established by adding 5 μl of enzyme and DMSO mixture into 10 μl of detection mix followed by addition of 5 μl of TK Substrate-biotin and ATP mixture (MAX inhibition=0% activity). To calculate the percent activity, Equation 1 was used. Ratio665/620 is the value at a given compound concentration: […]
row,IC50 [µM],Structure (SMILES)
1,< 0.1,"O=C1NCCOc2cc(-c3n[nH]c4ncc(-c5ccc6c(n5)CCC(N5CCCC5)CC6)cc34)ccc21 (centres unmarked) [Example 63, 8-{5-[7-(Pyrrolidin-1-yl)-5H,6H,7H,8H,9H-cyclohepta[b]pyridin-2-yl]-1H-pyrazolo[3,4-b]pyridin-3-yl}-2,3,4,5-tetrahydro-1,4-benzoxazepin-5-one]"
2,0.1 to 1,"C[C@@H]1CCCN1C1CCc2ccc(-c3cnc4[nH]nc(-c5ccc6c(c5)OCCNS6(=O)=O)c4c3)cc2CC1 (stereo partly drawn) [Example 66, 7-(5-{7-[(2R)-2-Methylpyrrolidin-1-yl]-6,7,8,9-tetrahydro-5H-benzo[7]annulen-2-yl}-1H-pyrazolo[3,4-b]pyridin-3-yl)-3,4-dihydro-2H-5,12,2-benzoxathiazepine-1,1-dione]"
3,< 0.1,"O=C1NCCOc2cc(-c3n[nH]c4ncc(-c5ccc6c(c5)CCNC6)cc34)ccc21 [Example 54, 8-(5-(1,2,3,4-Tetrahydroisoquinolin-6-yl)-1H-pyrazolo[3,4-b]pyridin-3-yl)-3,4-dihydrobenzo[f][1,4]oxazepin-5(2H)-one]"
4,< 0.1,"Cc1c(-c2n[nH]c3ncc(-c4ccc5c(c4)CCC(N4CCC[C@H]4C)CC5)cc23)ccc2c1OCCNC2=O (stereo partly drawn) [Example 41, 9-Methyl-8-(5-{7-[(2R)-2-methylpyrrolidin-1-yl]-6,7,8,9-tetrahydro-5H-benzo[7]annulen-2-yl}-1H-pyrazolo[3,4-b]pyridin-3-yl)-2,3,4,5-tetrahydro-1,4-benzoxazepin-5-one]"
5,0.1 to 1,"CC1(O)CCCCc2cc(-c3n[nH]c4ncc(-c5ccc6c(c5)CCN(C5CCCC5)CC6)cc34)ccc21 (centres unmarked) [Example 27, 2-[5-(3-Cyclopentyl-2,3,4,5-tetrahydro-1H-3-benzazepin-7-yl)-1H-pyrazolo[3,4-b]pyridin-3-yl]-5-methyl-6,7,8,9-tetrahydro-5H-benzo[7]annulen-5-ol]"
6,< 0.1,"C[C@@H]1CCCN1C1CCc2ccc(-c3cnc4[nH]nc(-c5ccc6c(c5)OCCNC6=O)c4c3)cc2CC1 (stereo partly drawn) [Example 44, 8-(5-{7-[(2R)-2-Methylpyrrolidin-1-yl]-6,7,8,9-tetrahydro-5H-benzo[7]annulen-2-yl}-1H-pyrazolo[3,4-b]pyridin-3-yl)-2,3,4,5-tetrahydro-1,4-benzoxazepin-5-one]"
7,< 0.1,"O=C1NCCOc2cc(-c3n[nH]c4ncc(-c5ccc6c(c5)CCC(N[C@H]5CCOC5)C6)cc34)ccc21 (stereo partly drawn) [Example 4, 8-[5-(6-{[(3S)—Oxolan-3-yl]amino}-5,6,7,8-tetrahydronaphthalen-2-yl)-1H-pyrazolo[3,4-b]pyridin-3-yl]-2,3,4,5-tetrahydro-1,4-benzoxazepin-5-one]"
8,< 0.1,"COCCN1CCc2ccc(-c3cnc4[nH]nc(-c5ccc6c(c5)OCCNC6=O)c4c3)cc2CC1 [Example 15, 8-(5-(3-(2-Methoxyethyl)-2,3,4,5-tetrahydro-1H-benzo[d]azepin-7-yl)-1H-pyrazolo[3,4-b]pyridin-3-yl)-3,4-dihydrobenzo[f][1,4]oxazepin-5(2H)-one]"
9,< 0.1,"C[C@@H]1CCCN1C1CCc2ccc(-c3cnc4[nH]nc(-c5ccc6c(c5)OCC5(CC5)NC6=O)c4c3)cc2CC1 (stereo partly drawn) [Example 36, 8-(5-{7-[(2R)-2-Methylpyrrolidin-1-yl]-6,7,8,9-tetrahydro-5H-benzo[7]annulen-2-yl}-1H-pyrazolo[3,4-b]pyridin-3-yl)-4,5-dihydro-2H-spiro[1,4-benzoxazepine-3,1′-cyclopropan]-5-one]"
10,0.1 to 1,"O=C1NCCOc2cc(-c3n[nH]c4ncc(-c5ccc6c(c5)CCN(C5CC5)C6)cc34)ccc21 [Example 21, 8-(5-(2-Cyclopropyl-1,2,3,4-tetrahydroisoquinolin-6-yl)-1H-pyrazolo[3,4-b]pyridin-3-yl)-3,4-dihydrobenzo[f][1,4]oxazepin-5(2H)-one]"
11,< 0.1,"CC[C@@H]1CCCN1C1CCc2ccc(-c3cnc4[nH]nc(-c5ccc6c(c5)OCCNC6=O)c4c3)cc2CC1 (stereo partly drawn) [Example 25, 8-(5-{7-[(2R)-2-Ethylpyrrolidin-1-yl]-6,7,8,9-tetrahydro-5H-benzo[7]annulen-2-yl}-1H-pyrazolo[3,4-b]pyridin-3-yl)-2,3,4,5-tetrahydro-1,4-benzoxazepin-5-one]"
12,< 0.1,"O=C1NCCOc2cc(-c3n[nH]c4ncc(-c5ccc6c(c5)CC[C@@H](N5CCCC5)CC6)cc34)ccc21 (single isomer, unassigned) [Example 57]"
13,< 0.1,"CC(C)(O)C(=O)N1CCc2ccc(-c3cnc4[nH]nc(-c5ccc6c(c5)OCCNC6=O)c4c3)cc2CC1 [Example 19, 8-(5-(3-(2-Hydroxy-2-methylpropanoyl)-2,3,4,5-tetrahydro-1H-benzo[d]azepin-7-yl)-1H-pyrazolo[3,4-b]pyridin-3-yl)-3,4-dihydrobenzo[f][1,4]oxazepin-5(2H)-one]"
14,< 0.1,"O=C1NCCOc2cc(-c3n[nH]c4ncc(-c5ccc6c(c5)CCN(C5CCCC5)C6)cc34)ccc21 [Example 9, 8-(5-(2-Cyclopentyl-1,2,3,4-tetrahydroisoquinolin-6-yl)-1H-pyrazolo[3,4-b]pyridin-3-yl)-3,4-dihydrobenzo[f][1,4]oxazepin-5(2H)-one]"
15,< 0.1,"CC(C)C(=O)N1CCc2ccc(-c3cnc4[nH]nc(-c5ccc6c(c5)OCCNC6=O)c4c3)cc2CC1 [Example 16, 8-{5-[3-(2-Methylpropanoyl)-2,3,4,5-tetrahydro-1H-3-benzazepin-7-yl]-1H-pyrazolo[3,4-b]pyridin-3-yl}-2,3,4,5-tetrahydro-1,4-benzoxazepin-5-one]"
16,< 0.1,"C[C@@H]1CNC(=O)c2ccc(-c3n[nH]c4ncc(-c5ccc6c(c5)CCC(N5CCC[C@H]5C)CC6)cc34)cc2O1 (stereo partly drawn) [Example 59, (2R)-2-Methyl-8-(5-{7-[(2R)-2-methylpyrrolidin-1-yl]-6,7,8,9-tetrahydro-5H-benzo[7]annulen-2-yl}-1H-pyrazolo[3,4-b]pyridin-3-yl)-2,3,4,5-tetrahydro-1,4-benzoxazepin-5-one]"
17,< 0.1,"CC1(C)NS(=O)(=O)c2cc(-c3n[nH]c4ncc(-c5ccc6c(c5)CCC(N5CCCC5)CC6)cc34)ccc21 (centres unmarked) [Example 32, 3,3-Dimethyl-6-{5-[7-(pyrrolidin-1-yl)-6,7,8,9-tetrahydro-5H-benzo[7]annulen-2-yl]-1H-pyrazolo[3,4-b]pyridin-3-yl}-2,3-dihydro-1λ^6,2-benzothiazole-1,1-dione]"
18,< 0.1,"O=C1NCCOc2cc(-c3n[nH]c4ncc(-c5ccc6c(c5)CCNCC6)cc34)ccc21 [Example 53, 8-(5-(2,3,4,5-Tetrahydro-1H-benzo[d]azepin-7-yl)-1H-pyrazolo[3,4-b]pyridin-3-yl)-3,4-dihydrobenzo[f][1,4]oxazepin-5(2H)-one]"
19,0.1 to 1,"CC1(O)CCCOc2cc(-c3n[nH]c4ncc(-c5ccc6c(c5)CCN(C5CCCC5)CC6)cc34)ccc21 (centres unmarked) [Example 28, (8-[5-(3-Cyclopentyl-2,3,4,5-tetrahydro-1H-3-benzazepin-7-yl)-1H-pyrazolo[3,4-b]pyridin-3-yl]-5-methyl-2,3,4,5-tetrahydro-1-benzoxepin-5-ol)]"
20,< 0.1,"O=C1NCCOc2cc(-c3n[nH]c4ncc(-c5ccc6c(c5)CN(C5CCCC5)CC6)cc34)ccc21 [Example 10, 8-(5-(2-Cyclopentyl-1,2,3,4-tetrahydroisoquinolin-7-yl)-1H-pyrazolo[3,4-b]pyridin-3-yl)-3,4-dihydrobenzo[f][1,4]oxazepin-5(2H)-one]"

# Source: patent US20240226115A1, “AXL INHIBITOR COMPOUNDS” (ARCUS BIOSCIENCES, INC., priority 2021, published 2024)
